Assay results reported in patent US20230174485A1, “LIPOXYGENASE INHIBITORS” (SRI International, priority 2020, published 2023).
Values joined by “and” are separate entries in the source; they are usually repeats but may differ in a detail not shown here. Identical values can stand only once. Like-named read-outs stand apart in the source and are kept apart here.

Columns and labels:
Format in all cases: biochemical
recombinant 5-LOX = biological target: T1, recombinant 5-LOX (Homo sapiens, UniProt P09917); experiment: 5-LOX fluorescent assay; settings: several values in one cell = repeat determinations; read-out: IC50 (μM) values for in vitro lipoxygenase inhibition, 5-LOX
T1 sequence (P09917 1-674): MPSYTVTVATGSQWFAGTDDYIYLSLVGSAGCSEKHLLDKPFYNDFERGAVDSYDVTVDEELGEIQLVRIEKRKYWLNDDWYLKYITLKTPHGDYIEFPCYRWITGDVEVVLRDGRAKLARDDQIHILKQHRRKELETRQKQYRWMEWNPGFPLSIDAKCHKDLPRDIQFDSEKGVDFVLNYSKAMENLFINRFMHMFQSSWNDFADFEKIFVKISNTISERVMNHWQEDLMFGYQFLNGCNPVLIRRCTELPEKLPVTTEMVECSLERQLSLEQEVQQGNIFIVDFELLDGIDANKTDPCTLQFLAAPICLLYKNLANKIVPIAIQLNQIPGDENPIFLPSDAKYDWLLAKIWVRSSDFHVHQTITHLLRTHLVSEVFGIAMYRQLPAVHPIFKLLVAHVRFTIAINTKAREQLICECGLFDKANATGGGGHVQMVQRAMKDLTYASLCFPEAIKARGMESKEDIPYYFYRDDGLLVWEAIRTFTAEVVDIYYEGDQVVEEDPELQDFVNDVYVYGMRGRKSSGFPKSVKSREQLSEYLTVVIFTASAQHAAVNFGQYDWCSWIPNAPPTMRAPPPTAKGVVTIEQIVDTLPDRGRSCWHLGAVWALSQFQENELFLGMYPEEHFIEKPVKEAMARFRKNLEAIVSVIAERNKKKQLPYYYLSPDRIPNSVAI
Procedure: 5-LOX FI assay Fluorescent Assay
The enzyme assay (100 μL) contained 50 mM Tris, pH 7.5, 0.1 mM EDTA, 0.3 mM CaCl2, 20 μM AA, 100 μM ATP, 1 μM DHR123, and recombinant 5-LOX cell lysate (0.5 μL/100 μL). Inhibitors (dissolved in DMSO) were plated at 1 μL into 96-well assay microplates followed by a 40 μL addition of a solution containing 5-LOX enzyme. Enzyme was pre-incubated with compounds for 15 mins. The assay was initiated by the addition of a 40 μL substrate solution containing AA and ATP, and 20 μL addition of a solution containing DHR123. Enzymatic reaction proceeded for 30 min with kinetic reading at 500 nm excitation & 536 nm emission in SpectraMax Paradigm (MolecularDevice). Percent inhibition was calculated for each compound dose for IC50 curve fitting using 4 Parameter Logistic Model or Sigmoidal Dose-Response Model.

[1] = biological target: T2, recombinant 12-LOX enzyme (Homo sapiens, UniProt P18054); experiment: 12-LOX fluorescent assay; settings: several values in one cell = repeat determinations; read-out: IC50 (μM) values for in vitro lipoxygenase inhibition, 12-LOX
T2 sequence (P18054 1-663): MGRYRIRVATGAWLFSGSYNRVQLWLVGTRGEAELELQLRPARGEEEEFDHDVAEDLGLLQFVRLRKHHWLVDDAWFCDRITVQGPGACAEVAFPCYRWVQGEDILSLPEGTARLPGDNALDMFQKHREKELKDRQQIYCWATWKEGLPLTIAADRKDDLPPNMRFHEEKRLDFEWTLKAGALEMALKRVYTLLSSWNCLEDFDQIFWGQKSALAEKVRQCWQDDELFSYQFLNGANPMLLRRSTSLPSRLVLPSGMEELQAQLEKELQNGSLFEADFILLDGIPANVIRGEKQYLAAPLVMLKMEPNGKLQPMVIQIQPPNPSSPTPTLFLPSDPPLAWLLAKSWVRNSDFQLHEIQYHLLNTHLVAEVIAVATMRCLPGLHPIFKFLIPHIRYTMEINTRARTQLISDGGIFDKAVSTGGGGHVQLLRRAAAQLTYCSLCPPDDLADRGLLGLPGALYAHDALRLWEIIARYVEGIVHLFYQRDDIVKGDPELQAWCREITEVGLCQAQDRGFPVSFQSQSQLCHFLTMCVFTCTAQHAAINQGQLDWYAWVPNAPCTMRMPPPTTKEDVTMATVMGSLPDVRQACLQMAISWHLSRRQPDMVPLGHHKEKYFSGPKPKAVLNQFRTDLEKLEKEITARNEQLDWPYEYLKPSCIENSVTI
Procedure: (§1) 12-LOX/15-LOX Fluorescent Assay
(§2) The enzyme assay (100 ul) contained 50 mM Tris, pH 7.5, 0.05% Tween-20, 20 μM AA/LA, 1 μM DHR123, and 100 nM recombinant 12-LOX enzyme/50 nM recombinant 15-LOX enzyme. Inhibitors (dissolved in DMSO) were plated at 1 μL into 96-well assay microplates followed by a 40 μL addition of a solution containing 12-LOX/15-LOX enzyme. Enzyme was pre-incubated with compounds for 15 mins. The assay was initiated by the addition of a 40 μL substrate solution containing AA/LA, and 20 μL addition of a solution containing DHR123. Enzymatic reaction proceeded for 30 min with kinetic reading at 500 nm excitation & 536 nm emission in SpectraMax Paradigm (MolecularDevice). Percent inhibition was calculated for each compound dose for IC50 curve fitting using 4 Parameter Logistic Model or Sigmoidal Dose-Response Model.

[2] = biological target: T3, recombinant 15-LOX enzyme (Homo sapiens, UniProt P16050); experiment: 15-LOX fluorescent assay; settings: several values in one cell = repeat determinations
T3 sequence (P16050 1-662): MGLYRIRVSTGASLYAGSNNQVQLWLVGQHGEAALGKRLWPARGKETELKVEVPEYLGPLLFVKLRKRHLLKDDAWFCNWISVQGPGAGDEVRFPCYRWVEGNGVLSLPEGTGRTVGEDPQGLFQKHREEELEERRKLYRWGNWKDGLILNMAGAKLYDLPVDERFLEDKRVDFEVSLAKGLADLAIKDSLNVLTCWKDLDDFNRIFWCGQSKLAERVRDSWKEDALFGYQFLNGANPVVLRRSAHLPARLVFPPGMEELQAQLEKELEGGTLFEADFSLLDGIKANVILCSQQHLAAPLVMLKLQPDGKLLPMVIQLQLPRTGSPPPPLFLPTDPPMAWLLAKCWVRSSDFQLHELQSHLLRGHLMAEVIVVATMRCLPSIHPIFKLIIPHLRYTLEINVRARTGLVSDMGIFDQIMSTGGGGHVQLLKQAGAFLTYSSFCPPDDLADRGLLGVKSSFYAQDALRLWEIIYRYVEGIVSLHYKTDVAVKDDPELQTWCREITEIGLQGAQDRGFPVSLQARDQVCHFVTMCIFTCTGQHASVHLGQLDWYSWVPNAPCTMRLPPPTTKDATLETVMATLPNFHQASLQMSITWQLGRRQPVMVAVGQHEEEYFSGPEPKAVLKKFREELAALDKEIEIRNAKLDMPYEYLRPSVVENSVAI
Procedure: as §1, §2

[3] = IC50 (μM) values for in vitro lipoxygenase inhibition, 15-LOX
[4] = read-out: IC50 (μM) values for in vitro lipoxygenase inhibition, 15-LOX

With `c1ccc(-c2c(NCCn3cncn3)ccc3c2[nH]c2ccccc23)cc1` [SS20308-0085-01, N-(2-(1H-1,2,4-triazol-1-yl)ethyl)-1-phenyl-9H-carbazol-2-amine] the IC50 (recombinant 5-LOX) was 0.57 µM and 1.6 µM, the IC50 [1] was 0.32 µM and 0.92 µM and the IC50 [2, 3] was 1.19 µM and 2.23 µM.

In the case of `CN(C)CCOc1c2c(cc3[nH]c4ccccc4c13)[nH]c1ccccc12` [SS20308-0063-01, 2-(5,7-dihydroindolo[2,3-b]carbazol-12-yloxy)-N,N-dimethylethanamine], the IC50 (recombinant 5-LOX) is reported as 0.53 µM and 0.69 µM, the IC50 [1] is reported as 0.46 µM and 0.56 µM and the IC50 [2, 3] is reported as 0.29 µM and 0.9 µM.

With `c1ccc2c(c1)CCc1cc(C3CCCCC3)c(NCCn3cncn3)cc1N2` [SS20308-0271-01, N-(2-(1H-1,2,4-triazol-1-yl)ethyl)-2-cyclohexyl-10,11-dihydro-5H-dibenzo[b,f]azepin-3-amine] the IC50 (recombinant 5-LOX) was 0.15 µM and 0.17 µM, the IC50 [1] was 0.11 µM and 0.12 µM and the IC50 [2, 4] was 0.28 µM and 0.32 µM.

Compound `CN(C)CCOc1c(N)cc(Cl)c2c1[nH]c1ccc(F)cc12` [SS20308-0069-01, 4-chloro-1-(2-(dimethylamino)ethoxy)-6-fluoro-9H-carbazol-2-amine] has an IC50 (recombinant 5-LOX) of 14.8 µM, an IC50 [1] of 7.93 µM and an IC50 [2, 4] of 8.34 µM.

`CN(C)CCOc1c(Nc2ccccc2)ccc2c1[nH]c1ccc(F)cc12` [SS20308-0032-01, 1-(2-(dimethylamino)ethoxy)-6-fluoro-N-phenyl-9H-carbazol-2-amine] showed an IC50 (recombinant 5-LOX) of 0.27 µM, an IC50 [1] of 0.21 µM and an IC50 [2, 4] of 15.9 µM.

`c1ccc2c(c1)[nH]c1cc3c(cc12)CCN3CCn1cncn1` [SS20308-0180-01, 1-(2-(1H-1,2,4-triazol-1-yl)ethyl)-1,2,3,9-tetrahydropyrrolo[2,3-b]carbazole] was tested, and the IC50 (recombinant 5-LOX) was 0.44 µM and 0.81 µM, the IC50 [1] was 0.03 µM and 0.08 µM and the IC50 [2, 4] was 0.39 µM and 0.51 µM.

Work on `c1ccc(-c2cc(NCCCn3cncn3)cc3c2[nH]c2ccccc23)cc1` [SS20308-0111-01, N-(3-(1H-1,2,4-triazol-1-yl)propyl)-1-phenyl-9H-carbazol-3-amine] yielded an IC50 (recombinant 5-LOX) of 20.3 µM, an IC50 [1] of 44.9 µM and an IC50 [2, 4] of 0.09 µM.

For `CN(C)CCc1cc(Nc2cccc(Cl)c2)cc2c1[nH]c1ccccc12` [SS20308-0258-01, N-(3-chlorophenyl)-1-(2-(dimethylamino)ethyl)-9H-carbazol-3-amine], the IC50 (recombinant 5-LOX) was 0.06 µM and 0.08 µM, the IC50 [1] was 0.16 µM and the IC50 [2, 4] was 0.09 µM and 0.55 µM.

`c1ccc(NC2CCc3[nH]c4ccccc4c3C2)cc1` (stereo not drawn) [SS20308-0158-01, N-phenyl-2,3,4,9-tetrahydro-1H-carbazol-3-amine] was tested, and the IC50 (recombinant 5-LOX) was 3.75 µM, the IC50 [1] was 3.16 µM and the IC50 [2, 4] was 1.55 µM.

`Clc1c(NCCn2cncn2)ccc2c1Nc1ccccc1CC2` [SS20308-0273-01, N-(2-(1H-1,2,4-triazol-1-yl)ethyl)-4-chloro-10,11-dihydro-5H-dibenzo [b,f]azepin-3-amine] showed an IC50 (recombinant 5-LOX) of 5.6 µM, an IC50 [1] of 2.66 µM and an IC50 [2, 4] of 9.82 µM.

`Clc1cc2c(cc1NCCn1cncn1)Nc1ccccc1CC2` [SS20308-0251-01, N-(2-(1H-1,2,4-triazol-1-yl)ethyl)-2-chloro-10,11-dihydro-5H-dibenzo[b,f]azepin-3-amine] was tested, and the IC50 (recombinant 5-LOX) was 0.45 µM and 0.56 µM, the IC50 [1] was 0.05 µM and 0.22 µM and the IC50 [2, 4] was 0.75 µM and 0.73 µM.

`c1ccc(-c2cc3c(cc2NCCn2cncn2)[nH]c2ccccc23)cc1` [SS20308-0061-01, N-(2-(1H-1,2,4-triazol-1-yl)ethyl)-3-phenyl-9H-carbazol-2-amine] was tested, and the IC50 (recombinant 5-LOX) was 0.36 µM and 0.79 µM, the IC50 [1] was 0.19 µM and 0.29 µM and the IC50 [2, 3] was 0.94 µM and 1.33 µM.

Compound `CC1(C)CN(CCn2cncn2)c2cc3[nH]c4ccccc4c3cc21` [SS20308-0209-01, 1-(2-(1H-1,2,4-triazol-1-yl)ethyl)-3,3-dimethyl-1,2,3,9-tetrahydropyrrolo[2,3-b] carbazole] has an IC50 (recombinant 5-LOX) of 0.92 µM, an IC50 [1] of 0.03 µM and an IC50 [2, 4] of 1.12 µM.

`CN(C)CCOc1c2[nH]c(-c3ccccc3)nc2c(F)c2c1[nH]c1ccccc12` [SS20308-0121-01, 2-(10-fluoro-2-phenyl-3,5-dihydroimidazo[4,5-b]carbazol-4-yloxy)-N,N-dimethylethanamine] gave an IC50 (recombinant 5-LOX) of 0.53 µM, an IC50 [1] of 1.16 µM and an IC50 [2, 4] of 0.86 µM.

Compound `Cc1cc(OCCn2cncn2)c2[nH]c3ccccc3c2c1` [SS20308-0017-01, 1-(2-(1H-1,2,4-triazol-1-yl)ethoxy)-3-methyl-9H-carbazole] has an IC50 (recombinant 5-LOX) of 6.06 µM, an IC50 [1] of 2.85 µM and an IC50 [2, 4] of 3.49 µM.
